Source: patent US20240334932A1, “POLYMORPHS HAVING PESTICIDAL ACTIVITY” (CORTEVA AGRISCIENCE LLC, priority 2021, published 2024)

Legend:
[1] = tested on: adult sweet potato whitefly, B. tabaci; experiment: Knock-down study, treated glass vial bioassay, acetone experiment (Example 13A); type: in vivo, B. tabaci (Middle East Asia Minor1 (MEAM1) biotype); settings: for Trt Least Squares Means (proportion scale) Mean: proportion of insects above the 2 cm line: applied from acetone, repeated measures 15-180 min, GLMM; for Effect on B. tabaci behavior compared with the amorphous oil: acetone
Protocol: In this study, the effect of Compound 1 on the behavior of adult sweet potato whitefly, B. tabaci was evaluated. In general, different forms of Compound 1 (either inventive Polymorph form A, inventive Polymorph form B, or non-crystalline Compound 1, amorphous oil) were applied to the inside of glass vials and adult B. tabaci were transferred into treated vials, exposing them to Compound 1 via contact with the treated glass surface. To quantify the knock-down effect reported previously (Lee et. al. 2013), a line was scribed 2 cm above the bottom of the treated vials and the number of B. tabaci above the 2 cm line were recorded the first three hours following initial exposure.
This study characterized the effect of Compound 1, Polymorph A and Compound 1, Polymorph B on adult B. tabaci whitefly behavior using a common treated glass vial bioassay to expose the test insects through direct contact (Busvine 1971), and compared those effects in direct head-to-head comparison with non-cystalline Compound 1. Test compounds were either dissolved in acetone (Example 11A) or suspended in a volatile anti-solvent (hexane) (Example 11B), and then evenly coated on the inside of a glass vial using a laboratory-roller.
In this experiment, two forms of Compound 1 (polymorph form B and an amorphous oil) were evaluated for their effect on B. tabaci behavior. Three application rates were evaluated for each form of Compound 1 (25 g/ha, 2.5 g/ha,and 0.25 g/ha), in addition to a solvent blank control. Each treatment and the control were replicated three times. Compound 1 samples were dissolved in acetone and were coated on the inside of a 11-dram screw-top glass vial (Fisherbrand 03-339-21N) (Fisher Scientific, Hampton, NH). […] To treat the vials, a stock solution of each sample was first prepared by dissolving 1 mg of Compound 1 sample (either polymorph form B or an amorphous oil) in 2 ml of acetone. The stock solution was agitated using a laboratory vortex mixer to ensure complete mixture of the solution. 151 μL of each stock solution was added to 11.85 mL of acetone to create the treatment solution for the 25 g/ha rate (resulting in 0.25 μg/cm^2). The 25 g/ha treatment solution was serially diluted ten-fold, two times to generate treatment solutions for the 2.5 and 0.25 g/ha rates. 3 mL of each treatment solution was transferred into the 11-dram vials and the vials were placed on a laboratory tube roller and rotated at room temperature until the acetone had fully evaporated, leaving a coating of Compound 1 on the inside of the vials. The solvent blank vials were treated with 3 mL of acetone. After treatment, the vials were left open in a fume hood overnight at room temperature in preparation for testing the following day. Mixed-sex adult B. tabaci whiteflies (Middle East Asia Minor1 (MEAM1) biotype) were collected from a susceptible colony maintained at Corteva Agriscience (Indianapolis, IN). The adult B. tabaci were anesthetized with CO2 and approximately 66.5, 32-102 (Mean, min-max) were introduced into each of the treated vials and their behavior recorded. To evaluate B. tabaci behavior, a line was scribed 2 cm above the bottom of the vial and the number of individuals above the line were recorded at 15, 30, 45, 60, 90, 120, 150, and 180 min after introduction. Following completion of the experiment, the insects were devitalized by freezing at −30° C. for 72 h after which the total number of insects in each vial was recorded. The percentage of B. tabaci above the 2 cm line was calculated for each rate and was used to graph the effect of Compound 1 on whiteflies over time.
For each trial and rate, the proportion of insects above the 2 cm line was analyzed with a generalized linear mixed model (GLMM) for repeated measures with binomial response and logit link function (Stroup, 2012). […]

[2] = tested on: adult sweet potato whitefly, B. tabaci; experiment: Knock-down study, treated glass vial bioassay, hexane anti-solvent experiment (Example 13B); type: in vivo; settings: for Trt Least Squares Means (proportion scale) Mean: proportion of insects above the 2 cm line: hexane anti-solvent suspension, repeated measures 15-180 min, GLMM; for Effect on B. tabaci behavior compared with the amorphous oil: hexane
Protocol: In this study, the effect of Compound 1 on the behavior of adult sweet potato whitefly, B. tabaci was evaluated. In general, different forms of Compound 1 (either inventive Polymorph form A, inventive Polymorph form B, or non-crystalline Compound 1, amorphous oil) were applied to the inside of glass vials and adult B. tabaci were transferred into treated vials, exposing them to Compound 1 via contact with the treated glass surface. To quantify the knock-down effect reported previously (Lee et. al. 2013), a line was scribed 2 cm above the bottom of the treated vials and the number of B. tabaci above the 2 cm line were recorded the first three hours following initial exposure. […] This study characterized the effect of Compound 1, Polymorph A and Compound 1, Polymorph B on adult B. tabaci whitefly behavior using a common treated glass vial bioassay to expose the test insects through direct contact (Busvine 1971), and compared those effects in direct head-to-head comparison with non-cystalline Compound 1. Test compounds were either dissolved in acetone (Example 11A) or suspended in a volatile anti-solvent (hexane) (Example 11B), and then evenly coated on the inside of a glass vial using a laboratory-roller. In this experiment, three forms of Compound 1 (Polymorph form A, Polymorph form B, and non-crystalline, amorphous oil) were evaluated for their effect on B. tabaci behavior, polymorph A, polymorph B and an amorphous oil. The samples of Polymorph form A and Polymorph form B were finely milled as described in Example 12. The experimental design of the hexane experiment, including rates (25, 2.5, and 0.25 g/ha), replication (three replications per treatment), and preparation of the treatment suspension was similar to the process described for Example 13A. However, hexane was used instead of acetone. […] Following sonication, samples were again mixed using a vortex mixer immediately before transferring 151 μl of each stock suspension to 11.85 mL of hexane to create the treatment suspension for the 25 g/ha rate (resulting in 0.25 μg/cm^2). The 25 g/ha treatment suspension was serially diluted ten-fold, two times to generate treatment suspensions for the 2.5 and 0.25 g/ha rates. 3 mL of each treatment suspension was transferred into the 11-dram vials and the vials were placed on a laboratory tube roller and rotated at room temperature until the hexane had fully evaporated, leaving an even coating of Compound 1 particles on the inside of the vials. The solvent blank vials were treated with 3 mL of hexane. Following treatment, the vials were stored, infested with approximately 117.4, 47-219 (Mean, min-max) adult B. tabaci, and evaluated as described in the acetone experiment. For each trial and rate, the proportion of insects above the 2 cm line was analyzed with a generalized linear mixed model (GLMM) for repeated measures with binomial response and logit link function (Stroup, 2012). The use of the generalized linear model with binomial distribution for the response, instead of the linear model with normal distribution (ANOVA), allows the correct use of the distributional assumptions and actual sample size (number of insects) used in the experiments. The model included Treatment, Time point, and the interaction Treatment x Time point as fixed effects and the replicate (experimental unit) as random effect. The correlation between repeated measures was modeled with the compound symmetry covariance matrix. The generalized linear mixed models were estimated with the residual pseudo-likelihood method, and the means of the treatment proportions were compared with Tukey's tests (α=0.05) (Stroup 2012). Statistical analyses were performed with SAS Proc GLIMMIX (SAS Software, Version 9.4, SAS Institute Inc., Cary, NC).

[3] = Air milling of polymorphs, PXRD before and after (Example 12); type: physicochemical; settings: Jet Mill to d(0.5)<6 μm and d(0.9)<15 μm
Protocol: Compound 1, Polymorph A and Compound 1, Polymorph B samples were air milled separately with Jet Mill until particle size of d (0.5)<6 μm and d (0.9)<15 μm. Powder X-Ray Diffraction (PXRD) was conducted on the samples before and after the air milling process.

[4] = Dissolution in hexane (anti-solvent); type: physicochemical

Compound | Trt Least Squares Means (proportion scale) Mean: proportion of insects above the 2 cm line ([1]; 0.25 g/ha) | Trt Least Squares Means (proportion scale) Mean: proportion of insects above the 2 cm line ([1]; 2.5 g/ha) | Trt Least Squares Means (proportion scale) Mean: proportion of insects above the 2 cm line ([1]; 25 g/ha) | Trt Least Squares Means (proportion scale) Mean: proportion of insects above the 2 cm line ([2]; 0.25 g/ha) | Trt Least Squares Means (proportion scale) Mean: proportion of insects above the 2 cm line ([2]; 2.5 g/ha) | Trt Least Squares Means (proportion scale) Mean: proportion of insects above the 2 cm line ([2]; 25 g/ha) | Effect on B. tabaci behavior compared with the amorphous oil ([2]; 0.25 g/ha) | Effect on B. tabaci behavior compared with the amorphous oil ([2]; 2.5 g/ha) | Effect on B. tabaci behavior compared with the amorphous oil ([2]; 25 g/ha) | Polymorphic form after the air milling process (PXRD) [3] | Solubility in hexane [4] | Effect on B. tabaci behavior compared with the amorphous oil ([1]; 0.25 g/ha) | Effect on B. tabaci behavior compared with the amorphous oil ([1]; 2.5 g/ha) | Effect on B. tabaci behavior compared with the amorphous oil ([1]; 25 g/ha)
CCN(C(=O)CCS(C)(=O)=O)c1sc(-c2cccnc2)nc1Cl [amorphous oil, N-[4-chloro-2-(pyridin-3-yl)-1,3-thiazol-5-yl]-N-ethyl-3-(methylsulfonyl) propanamide, reference compound] | 0.295 | 0.326 | 0.167 | 0.601 | 0.453 | 0.029 | – | – | – | – | – | – | – | –
CCN(C(=O)CCS(C)(=O)=O)c1sc(-c2cccnc2)nc1Cl [Polymorph A, N-[4-chloro-2-(pyridin-3-yl)-1,3-thiazol-5-yl]-N-ethyl-3-(methylsulfonyl) propanamide] | – | – | – | 0.342 | 0.080 | 0.015 | more negatively affected than those exposed to the amorphous oil | significantly affected when compared directly to the amorphous oil | not a difference in the effect | unchanged | – | – | – | –
CCN(C(=O)CCS(C)(=O)=O)c1sc(-c2cccnc2)nc1Cl [Compound 1, N-[4-chloro-2-(pyridin-3-yl)-1,3-thiazol-5-yl]-N-ethyl-3-(methylsulfonyl) propanamide] | – | – | – | – | – | – | – | – | – | – | does not readily dissolve | – | – | –
CCN(C(=O)CCS(C)(=O)=O)c1sc(-c2cccnc2)nc1Cl [Polymorph B, N-[4-chloro-2-(pyridin-3-yl)-1,3-thiazol-5-yl]-N-ethyl-3-(methylsulfonyl) propanamide] | 0.502 | 0.156 | 0.115 | 0.345 | 0.079 | 0.013 | more negatively affected than those exposed to the amorphous oil | significantly affected when compared directly to the amorphous oil | not a difference in the effect | unchanged | – | not a difference in the effect | more affected than insects exposed to the amorphous oil | no difference in the effect
